# Measurements: ChEMBL document CHEMBL1201862, “PubChem BioAssay data set” (2004)
#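 Results reflect a 48-hour exposure of cells in 96-well plates to compound at five concentrations. GI50 = concentration required for 50% inhibition of growth.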 Activity calls are given as the source filed them. Cut-off read from the data, not from the text of the source: active = GI50 up to about 1.1 µM and inactive = higher.
# Assays:
# Test in all cases: NCI-60 cell line screen, 48 h
# XF498 = system: XF498
# SF-539 = system: SF-539
# MOLT-4 = system: MOLT-4
# M19-MEL = system: M19-MEL
# SK-MEL-5 = system: SK-MEL-5
# SK-OV-3 = system: SK-OV-3
# M14 = system: M14
# NCI-H522 = system: NCI-H522
# SNB-19 = system: SNB-19
# KM12 = system: KM12
# HCC 2998 = system: HCC 2998
# RXF 393 = system: RXF 393
# CAKI-1 = system: CAKI-1
# HOP-62 = system: HOP-62
# HOP-18 = system: HOP-18
# TK-10 = system: TK-10
# LXFL 529 = system: LXFL 529
# HCT-116 = system: HCT-116
# SK-MEL-28 = system: SK-MEL-28
# CCRF-CEM = system: CCRF-CEM
# SF-268 = system: SF-268
# UO-31 = system: UO-31
# HL-60 = system: HL-60
# SNB-78 = system: SNB-78
# Malme-3M = system: Malme-3M
# ACHN = system: ACHN
# UACC-62 = system: UACC-62
# IGROV-1 = system: IGROV-1
# KM-20L2 = system: KM-20L2
# SF-295 = system: SF-295
# OVCAR-8 = system: OVCAR-8
# SW-620 = system: SW-620
# OVCAR-4 = system: OVCAR-4
# SNB-75 = system: SNB-75
# HCT-15 = system: HCT-15
# SK-MEL-2 = system: SK-MEL-2
# A498 = system: A498
# SN12C = system: SN12C
# HOP-92 = system: HOP-92
# DMS-114 = system: DMS-114
# DLD-1 = system: DLD-1
# RXF 631 = system: RXF 631
# COLO 205 = system: COLO 205
# U-251 = system: U-251
# A549 = system: A549
# NCI-H226 = system: NCI-H226
# HT-29 = system: HT-29
# DMS-273 = system: DMS-273
# OVCAR-3 = system: OVCAR-3
# UACC-257 = system: UACC-257
# NCI-H460 = system: NCI-H460
# NCI-H23 = system: NCI-H23
# OVCAR-5 = system: OVCAR-5
# 786-0 = system: 786-0
# EKVX = system: EKVX
structure (smiles),measurement,setting,value
OC(CCNC12CC3CC(CC(C3)C1)C2)c1ccccc1 (stereo not given),GI50,XF498,> 100 µM (inactive)
same,GI50,SF-539,> 100 µM (inactive)
same,GI50,MOLT-4,> 100 µM (inactive)
same,GI50,M19-MEL,> 100 µM (inactive)
same,GI50,SK-MEL-5,43.7 µM (inactive)
same,GI50,SK-OV-3,> 100 µM (inactive)
same,GI50,M14,40.4 µM (inactive)
same,GI50,NCI-H522,> 100 µM (inactive)
same,GI50,SNB-19,> 100 µM (inactive)
same,GI50,KM12,88.9 µM (inactive)
same,GI50,HCC 2998,68.7 µM (inactive)
same,GI50,RXF 393,> 100 µM (inactive)
same,GI50,CAKI-1,> 100 µM (inactive)
same,GI50,HOP-62,> 100 µM (inactive)
same,GI50,HOP-18,> 100 µM (inactive)
same,GI50,TK-10,> 100 µM (inactive)
same,GI50,LXFL 529,> 100 µM (inactive)
same,GI50,HCT-116,80.7 µM (inactive)
same,GI50,SK-MEL-28,> 100 µM (inactive)
same,GI50,CCRF-CEM,60.5 µM (inactive)
same,GI50,SF-268,> 100 µM (inactive)
same,GI50,UO-31,43.9 µM (inactive)
same,GI50,HL-60,> 100 µM (inactive)
same,GI50,SNB-78,> 100 µM (inactive)
same,GI50,Malme-3M,> 100 µM (inactive)
same,GI50,ACHN,> 100 µM (inactive)
same,GI50,UACC-62,> 100 µM (inactive)
same,GI50,IGROV-1,72.1 µM (inactive)
same,GI50,KM-20L2,49.3 µM (inactive)
same,GI50,SF-295,> 100 µM (inactive)
same,GI50,OVCAR-8,> 100 µM (inactive)
same,GI50,SW-620,> 100 µM (inactive)
same,GI50,OVCAR-4,> 100 µM (inactive)
same,GI50,SNB-75,75.7 µM (inactive)
same,GI50,HCT-15,> 100 µM
same,GI50,SK-MEL-2,> 100 µM (inactive)
same,GI50,A498,> 100 µM (inactive)
same,GI50,SN12C,> 100 µM (inactive)
same,GI50,HOP-92,78.3 µM (inactive)
same,GI50,DMS-114,57.9 µM (inactive)
same,GI50,DLD-1,99.8 µM (inactive)
same,GI50,RXF 631,> 100 µM (inactive)
same,GI50,COLO 205,51.8 µM (inactive)
same,GI50,U-251,> 100 µM (inactive)
same,GI50,A549,> 100 µM (inactive)
same,GI50,NCI-H226,> 100 µM (inactive)
same,GI50,HT-29,35.3 µM (inactive)
same,GI50,DMS-273,80.4 µM (inactive)
same,GI50,OVCAR-3,> 100 µM (inactive)
same,GI50,UACC-257,> 100 µM (inactive)
same,GI50,NCI-H460,> 100 µM (inactive)
same,GI50,NCI-H23,> 100 µM (inactive)
same,GI50,OVCAR-5,> 100 µM (inactive)
same,GI50,786-0,> 100 µM (inactive)
same,GI50,EKVX,> 100 µM (inactive)
